Results as given in ChEMBL document CHEMBL1201862, “PubChem BioAssay data set” (2004).
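Results reflect a 48-hour exposure of cells in 96-well plates to compound at five concentrations. Here, GI50 denotes the concentration required for 50% inhibition of growth.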 The source made the active and inactive calls. Rule as the data show it: active = GI50 up to about 1.1 µM and inactive = higher.

Legend:
Assay in all cases: inhibition of tumour cell growth, NCI panel, 48 h
A498 = tested on: A498
ACHN = tested on: ACHN
CCRF-CEM = tested on: CCRF-CEM
DLD-1 = tested on: DLD-1
HCT-116 = tested on: HCT-116
HOP-62 = tested on: HOP-62
HOP-92 = tested on: HOP-92
K562 = tested on: K562
LXFL 529 = tested on: LXFL 529
Malme-3M = tested on: Malme-3M
NCI-H23 = tested on: NCI-H23
OVCAR-5 = tested on: OVCAR-5
SF-268 = tested on: SF-268
SNB-19 = tested on: SNB-19
SNB-75 = tested on: SNB-75
SR = tested on: SR
UACC-62 = tested on: UACC-62
DU-145 = tested on: DU-145
PC-3 = tested on: PC-3

With `O=c1[nH]cnc(NC2C=C(CO)C(O)C2O)c1[N+](=O)[O-]` (stereo not given) the GI50 (A498) was > 100 µM (inactive), the GI50 (ACHN) was > 100 µM (inactive) and the GI50 (CCRF-CEM) was > 71.1 µM (inactive). The GI50 (DLD-1) was > 58.6 µM (inactive), the GI50 (HCT-116) was > 37.7 µM (inactive) and the GI50 (HOP-62) was > 100 µM (inactive). For the same compound, the GI50 (HOP-92) was > 100 µM (inactive), the GI50 (K562) was > 100 µM (inactive) and the GI50 (LXFL 529) was > 100 µM (inactive). The GI50 (Malme-3M) was > 100 µM (inactive), the GI50 (NCI-H23) was > 100 µM (inactive) and the GI50 (OVCAR-5) was > 100 µM (inactive). For the same compound, the GI50 (SF-268) was > 100 µM (inactive), the GI50 (SNB-19) was > 100 µM (inactive) and the GI50 (SNB-75) was > 100 µM (inactive). For the same compound, the GI50 (SR) was > 100 µM (inactive) and the GI50 (UACC-62) was > 100 µM (inactive).
With `CCCCNCCCNCCCNC(=O)c1csc(-c2csc(CCNC(=O)C(NC(=O)C(C)C(O)C(C)NC(=O)C(NC(=O)c3nc(C(CC(N)=O)NCC(N)C(N)=O)nc(N)c3C)C(OC3OC(CO)C(O)C(O)C3OC3OC(CO)C(O)C(OC(N)=O)C3O)c3c[nH]cn3)C(C)O)n2)n1` (stereo not given) the GI50 (A498) was 3.65 µM (inactive), the GI50 (ACHN) was < 0.0187 µM (active) and the GI50 (CCRF-CEM) was 15.6 µM (inactive). For the same compound, the GI50 (DLD-1) was 20.9 µM (inactive), the GI50 (DU-145) was 11.1 µM (inactive) and the GI50 (HCT-116) was 0.0998 µM (active). The GI50 (HOP-62) was 0.174 µM (active), the GI50 (HOP-92) was 0.0798 µM (active) and the GI50 (K562) was 10.1 µM (inactive). For the same compound, the GI50 (LXFL 529) was 40.6 µM (inactive), the GI50 (Malme-3M) was 0.294 µM (active) and the GI50 (NCI-H23) was 0.083 µM (active). For the same compound, the GI50 (OVCAR-5) was 2.3 µM (inactive), the GI50 (PC-3) was 23.6 µM (inactive) and the GI50 (SF-268) was 0.253 µM (active). For the same compound, the GI50 (SNB-19) was 6.89 µM (inactive), the GI50 (SNB-75) was 0.0589 µM (active) and the GI50 (SR) was 6.44 µM (inactive). The GI50 (UACC-62) was 0.362 µM (active).
For `CC1C2CC=CC(=O)[C@@]2(C)CCC12OCCO2` (stereo not given in full), the GI50 (A498) was > 100 µM (inactive), the GI50 (ACHN) was > 100 µM (inactive) and the GI50 (CCRF-CEM) was > 100 µM (inactive). For the same compound, the GI50 (DLD-1) was > 100 µM (inactive), the GI50 (HCT-116) was > 100 µM (inactive) and the GI50 (HOP-62) was > 100 µM (inactive). For the same compound, the GI50 (HOP-92) was > 100 µM (inactive), the GI50 (K562) was > 100 µM (inactive) and the GI50 (LXFL 529) was > 100 µM (inactive). For the same compound, the GI50 (Malme-3M) was 17.5 µM (inactive), the GI50 (NCI-H23) was > 100 µM (inactive) and the GI50 (OVCAR-5) was > 100 µM (inactive). For the same compound, the GI50 (SF-268) was > 100 µM (inactive), the GI50 (SNB-19) was > 100 µM (inactive) and the GI50 (SNB-75) was 97.3 µM (inactive). For the same compound, the GI50 (SR) was > 100 µM (inactive) and the GI50 (UACC-62) was > 100 µM (inactive).
In the case of `CCC1(c2ccncc2)CCC(=O)NC1=O` (stereo not given) [ROGLETIMIDE], the GI50 (A498) is reported as > 100 µM (inactive), the GI50 (ACHN) is reported as > 100 µM (inactive) and the GI50 (CCRF-CEM) is reported as > 100 µM (inactive). The GI50 (DLD-1) was > 100 µM (inactive), the GI50 (HCT-116) was > 100 µM (inactive) and the GI50 (HOP-62) was > 100 µM (inactive). The GI50 (HOP-92) was 52.4 µM (inactive), the GI50 (K562) was > 100 µM (inactive) and the GI50 (LXFL 529) was > 100 µM (inactive). The GI50 (Malme-3M) was > 100 µM (inactive), the GI50 (NCI-H23) was > 100 µM (inactive) and the GI50 (OVCAR-5) was > 100 µM (inactive). For the same compound, the GI50 (SF-268) was > 100 µM (inactive), the GI50 (SNB-19) was > 100 µM (inactive) and the GI50 (SNB-75) was > 100 µM (inactive). For the same compound, the GI50 (SR) was > 100 µM (inactive) and the GI50 (UACC-62) was > 100 µM (inactive).
